In patent US10359430B2, “Selective near-infrared optical imaging of necrotic cells and simultaneous cell fixing and counter staining with metallacrown complexes” (THE REGENTS OF THE UNIVERSITY OF MICHIGAN, priority 2015, dated 2019):
One block for each compound: values may come before it.

Tests used:
HeLa cells [1] = test: NIR epifluorescence microscopy of HeLa cells (necrotic cell labelling, simultaneous staining and fixing); type: cell-based, Human; conditions: 150 μM complex and 3 μM propidium iodide together, UV light (377 nm) 5 minutes
Description: Cells were seeded in a 8-well Lab Tek Chamber coverglass (Nunc, Dutsher S.A., Brumath, France) at a density of 6×10^4 cells/well and cultured at 37° C. in 5% humidified CO2 atmosphere.
The continued incubation enabled the internalization of the complexes.
All of the previously mentioned incubated HeLa cells were then washed with fresh OPTI-MEM® media and were incubated with 3 μM propidium iodide for 5 minutes. Propidium iodide is a commercially available stain (emitting in the visible range) for necrotic cells, and was used to confirm cell necrosis.
i. 377 nm with 50 nm band-pass filter with 50 nm bandwidth for the excitation and 805 nm long-pass filter 805 nm or 996 nm band-pass filter with 70 nm bandwidth for YbIII emission in the NIR range.
ii. […] for the excitation and 805 nm long-pass filter 805 nm or 996 nm band-pass filter with 70 nm bandwidth for YbIII emission in the NIR range. […]

HeLa cells [2] = test: as above; type: cell-based, Human
[3] = Photostability stress tests; type: physicochemical
Description: Photostability stress tests of Yb^3+[Zn(II)MCpyzHA] (Yb λem=980 nm) and Nd^3+[Zn(II)MCpyzHA] (Nd λem=1064 nm) and the commercially available dye for necrotic cells (Propidium Iodide) were performed. The complexes (150 μM) or dye (50 μM) were dissolved in water and the complexes were also dissolved in OPTI-MEM® media. The MC solutions were exposed to 5 hours of UV radiation (377 nm). The propidium iodide solution was exposed to 5 hours of UV radiation (530 nm).

[4] = Photophysical properties of the metallacrowns in solid state and in aqueous solutions; type: physicochemical; conditions: room temperature, excitation at 370 nm
Description: FIG. 4. illustrates the normalized excitation (λem(Nd^3+)=1070 nm, λem(Yb^3+)=980 nm) and emission (λex=370 nm) spectra of Yb^3+[Zn(II)MCpyzHA], at the top, and Nd^3+[Zn(II)MCpyzHA] MCs, at the bottom, (solid or 200 μM solutions, room temperature).

[5] = Photophysical parameters in OPTI-MEM media, cell supernatant and HeLa cells; type: physicochemical
Description: The Yb^3+[Zn(II)MCpyzHA] complexes were dissolved in OPTI-MEM® medium with 2% SVF (without cells) and were incorporated in HeLa cells, both with and without exposure to UV light. The results in are shown in FIG. 20, (A) (corrected and normalized excitation) and FIG. 20, (B) (corrected and normalized emission). […] The present inventors developed instrumentation in order to collect photophysical properties of MCs inside of cancer cells. They measured quantitative photophysical parameters (quantum yields and life times) inside of the cells with equipment which is usually adapted for measuring of (quantum yields and life times) in solids or in concentrated solutions.
The Yb^3+[Zn(II)MCpyzHA] complexes were collected together with cell supernatant (SN) and with HeLa cells treated with N-acetyl cysteine, both with and without exposure to UV light. For SN1 and cells1, incubation with NAC took place for 30 minutes, then the cells were washed, and incubation with Yb^3+[Zn(II)MCpyzHA] took place for 15 minutes. For SN2 and cells2, incubation with Yb^3+[Zn(II)MCpyzHA] took place for 15 minutes, and then NAC was added and incubation with NAC took place for 30 minutes. The results in are shown in FIGS. 20C (corrected and normalized excitation) and 20D (corrected and normalized emission). […]

[6] = Photophysical properties of the metallacrowns in solid state and in aqueous solutions; type: physicochemical
[7] = Table 3, No UV: After 5 h incubation with HeLa cells without illumination
[8] = Table 3, UV: After 5 h incubation with HeLa cells with UV illumination (during 8 min)

- Photostability (fluorescence intensity) ([3]; 50 μM in water, 5 hours of irradiation at 530 nm): dropped half of its initial intensity
Structure (SMILES): CC[N+](C)(CC)CCC[n+]1c(-c2ccccc2)c2cc(N)ccc2c2ccc(N)cc21.[I-].[I-] [propidium iodide, reference compound]
- Incubation time after which emission was observed in cells after UV illumination (HeLa cells [1]): 15 min
- Specificity of the dye for cell state (HeLa cells [2]; 150 μM complex and 3 μM propidium iodide together, UV light (377 nm) 5 minutes): specific for dead and apoptotic cells

- Q (quantum yield), D2O ([4]; 200 μM in D2O): 6.17(9) · 10^−2%
- Q (quantum yield), H2O ([4]; 200 μM in H2O): 7.7(1) · 10^−3%
- Q (quantum yield), Solid ([4]; solid state): 0.444(9) %
- τ2 ([5]; Table 3, In HeLa cells): 0.808(8) μs
- τ2 contribution (longer component) ([5]; Table 3, In HeLa cells): 100%
- Quantum yield [5, 7]: 7.50(5) · 10^−3%
- τ1 [5, 7]: 0.261(1) μs
- τ1 contribution [5, 7]: 85%
- τ2 [5, 7]: 0.98(1) μs
- τ2 contribution [5, 7]: 15%
- Quantum yield ([5]; Table 3, OptiMEM): 7.33(1) · 10^−3%
- τ1 ([5]; Table 3, OptiMEM): 0.256(6) μs
- τ1 contribution ([5]; Table 3, OptiMEM): 90%
- τ2 ([5]; Table 3, OptiMEM): 1.1(1) μs
- τ2 contribution ([5]; Table 3, OptiMEM): 10%
- Quantum yield ([5]; Table 3, OptiMEM-UV 1 h 30 min): 7.7(1) · 10^−3%
- τ1 ([5]; Table 3, OptiMEM-UV 1 h 30 min): 0.352(2) μs
- τ1 contribution ([5]; Table 3, OptiMEM-UV 1 h 30 min): 67%
- τ2 ([5]; Table 3, OptiMEM-UV 1 h 30 min): 0.874(7) μs
- τ2 contribution ([5]; Table 3, OptiMEM-UV 1 h 30 min): 33%
- Quantum yield [5, 8]: 6.2(1) · 10^−3%
- τ1 [5, 8]: 0.376(3) μs
- τ1 contribution [5, 8]: 60%
- τ2 [5, 8]: 0.83(2) μs
- τ2 contribution [5, 8]: 40%
- Photostability ([3]; 150 μM in water and OPTI-MEM media, 5 hours of irradiation with 377 nm light): fully photostable
- τ (luminescence lifetime), D2O ([6]; 200 μM in D2O, room temperature, excitation at 355 nm): 1.29(1) μs
- τ (luminescence lifetime), H2O ([6]; 200 μM in H2O, room temperature, excitation at 355 nm): 0.214(4) μs
- q (number of coordinated water molecules) ([6]; calculated from lifetimes, estimated error ±0.2): 0.1
- τ (luminescence lifetime), Solid ([6]; solid state, room temperature, excitation at 355 nm): 1.71(1) μs
Structure (SMILES): O=C([N-][O-])c1cnccn1.O=C([N-][O-])c1cnccn1.O=C([N-][O-])c1cnccn1.O=C([N-][O-])c1cnccn1.O=C([N-][O-])c1cnccn1.O=C([N-][O-])c1cnccn1.O=C([N-][O-])c1cnccn1.O=C([N-][O-])c1cnccn1.O=C([N-][O-])c1cnccn1.O=C([N-][O-])c1cnccn1.O=C([N-][O-])c1cnccn1.O=C([N-][O-])c1cnccn1.O=C([N-][O-])c1cnccn1.O=C([N-][O-])c1cnccn1.O=C([N-][O-])c1cnccn1.O=C([N-][O-])c1cnccn1.O=S(=O)([O-])C(F)(F)F.O=S(=O)([O-])C(F)(F)F.O=S(=O)([O-])C(F)(F)F.[Nd+3].[Zn+2].[Zn+2].[Zn+2].[Zn+2].[Zn+2].[Zn+2].[Zn+2].[Zn+2].[Zn+2].[Zn+2].[Zn+2].[Zn+2].[Zn+2].[Zn+2].[Zn+2].[Zn+2].c1ccncc1.c1ccncc1.c1ccncc1.c1ccncc1.c1ccncc1.c1ccncc1.c1ccncc1.c1ccncc1 [Nd^3+[Zn(II)MCpyzHA]]
- Fixing and staining of HeLa cells (HeLa cells [2]; 150 μM, 15 minutes, UV light (377 nm) 8 minutes, further 1 hour): fixed and stained
- Change of luminescent properties in media, cell supernatant or HeLa cells ([5]; with/without exposure to UV light): did not change in OPTI-MEM® media or inside of the HeLa cells
